The record followed here is patent EP4725957A1, “GROUP OF CYCLIC ALKALINE LIPOPEPTIDE COMPOUNDS, AND PREPARATION METHOD THEREFOR AND USE THEREOF” (Institute of Medicinal Biotechnology, Chinese Academy of …, priority 2023, dated 2024).

Type in all cases: cell-based
Series [1] deals with Acinetobacter baumannii ABA19-1. The note with it: ABA19-1. The essentials: (§1)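 Broth microdilution MIC per CLSI in MH broth, compounds 2-fold diluted to final 64–0.03 mg/L. Inoculum (2-4) × 10^5 CFU/mL final, from 0.5 McFarland suspensions of 18-24 h colonies. Plates sealed and incubated 35-37°C for 16-20 h.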
Series [2] deals with Acinetobacter baumannii NCTC 13304 (OXA-27). The note with it: NCTC 13304. The essentials: as §1
Series [3] has as its system Escherichia coli ATCC BAA-2340 (KPC). The conditions noted are these: ATCC BAA-2340. The essentials: as §1
The test system of series [4] is Escherichia coli ATCC BAA-2523. The conditions noted are these: ATCC BAA-2523. The gist of the method: as §1
The test system of series [5] is Klebsiella pneumoniae ATCC BAA-1705 (KPC). The note with it: ATCC BAA-1705. The gist of the method: as §1
For series [6], the system named is Klebsiella pneumoniae KPN+19-15. The conditions noted are these: KPN+19-15. The gist of the method: as §1
The test system of series [7] is Pseudomonas aeruginosa ATCC 27853. The conditions noted are these: ATCC 27853. The essentials: as §1
The subject of series [8] is Pseudomonas aeruginosa PAE19-3. The conditions noted are these: PAE19-3. The essentials: as §1
The nature of series [9]: Nephrotoxicity assay: in vitro cytotoxicity of HK-2 cells by CCK-8 assay. The note with it: human, HK-2 cells (human renal), 72 h incubation with drug-containing medium. The gist of the method: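 HK-2 human renal cells in RPMI-1640 with 10% FBS were exposed to compounds at final 12.5–500 µg/mL for 72 h, then CCK-8 for 3 h and OD450 read. Viability was normalised to drug-free wells; IC50 came from logarithmic regression over three repeats, with polymyxin B as positive drug.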
A general note: Tetrazolium assays rely on reduction of a dye to a coloured formazan, in cell work by metabolically active cells.

A word on the MIC: it is the smallest concentration in the dilution series that meets the test's criterion for growth inhibition. A higher MIC goes with a less susceptible organism. For orientation: IC50 means the concentration needed to halve the response being measured. Low values mean inhibition by little substance, high ones a need for much substance.

Converted amounts (≈) assume the structure as drawn. Bridge positions count the residues as written; N and C are the ends. Square brackets hold non-standard residues; d marks the D form. Peptide text beside a SMILES is read from it. * marks the point of attachment. Heptanoyl(6-Me) = CC(C)CCCCC(=O)*; Nonanoyl = CCCCCCCCC(=O)*; X1 = CC[C@H](C)CCCCC(=O)*; Heptanoyl = CCCCCCC(=O)*; Octanoyl = CCCCCCCC(=O)*; Orn = NCCC[C@H](N)C(=O)O; Dab = NCC[C@H](N)C(=O)O; Dap = NC[C@H](N)C(=O)O

Consider `CCCCCCC(=O)N[C@@H](CCN)C(=O)N[C@H](C(=O)N[C@H](CO)C(=O)N[C@H]1CCNC(=O)[C@H]([C@@H](C)O)NC(=O)[C@H](CCN)NC(=O)[C@H](CCN)NC(=O)[C@H]([C@@H](C)O)NC(=O)[C@@H](Cc2ccccc2)NC(=O)[C@H](CCCN)NC1=O)[C@@H](C)O` [Compound 69, Heptanoyl-Dab-Thr-D-Ser-ring(4-10)[Dab-Orn-D-Phe-Thr-Dab-Dab-Thr]] (Heptanoyl-[Dab]T[dS][Dab][Orn][dF]T[Dab][Dab]T; lactam 4-C), for which the MIC in series [1] was found to be 0.25 mg/L (≈ 0.215 µM); in series [2] it was 0.25 mg/L (≈ 0.215 µM); in series [3] it was 0.5 mg/L (≈ 0.429 µM); in series [4] it was 0.5 mg/L (≈ 0.429 µM); in [5], 0.25 mg/L (≈ 0.215 µM); in series [6] it was 0.5 mg/L (≈ 0.429 µM). The MIC in [7] came out at 64 mg/L (≈ 55 µM); in [8], 8 mg/L (≈ 6.87 µM). In series [9], this compound registered an IC50 at 72 h above 500 mg/L.

As for `CCCCCCCCC(=O)N[C@@H](CCN)C(=O)N[C@H](C(=O)N[C@H](CO)C(=O)N[C@H]1CCNC(=O)[C@H]([C@@H](C)O)NC(=O)[C@H](CCN)NC(=O)[C@H](CCN)NC(=O)[C@H]([C@@H](C)O)NC(=O)[C@@H](Cc2ccccc2)NC(=O)[C@H](CCCN)NC1=O)[C@@H](C)O` [Compound 70, Nonanoyl-Dab-Thr-D-Ser-ring(4-10)[Dab-Orn-D-Phe-Thr-Dab-Dab-Thr]] (Nonanoyl-[Dab]T[dS][Dab][Orn][dF]T[Dab][Dab]T; lactam 4-C), the MIC in [1] amounted to 0.25 mg/L (≈ 0.21 µM); in [2], 0.25 mg/L (≈ 0.21 µM); in [3], 0.5 mg/L (≈ 0.419 µM); in [4], 0.5 mg/L (≈ 0.419 µM); in [5], 0.25 mg/L (≈ 0.21 µM); in series [6], 0.5 mg/L (≈ 0.419 µM). In addition, the results for the minimal inhibitory concentration (MIC) in series [7] and in [8] were 64 mg/L (≈ 53.7 µM) and 8 mg/L (≈ 6.71 µM), respectively. Moreover, inhibition in series [9] was half-maximal at 384 ± 29.5 mg/L (≈ 322 µM) (IC50 at 72 h).

Consider `CC[C@H](C)CCCCC(=O)N[C@@H](CCN)C(=O)N[C@H](C(=O)N[C@H](CO)C(=O)N[C@H]1CCNC(=O)[C@H]([C@@H](C)O)NC(=O)[C@H](CCN)NC(=O)[C@H](CN)NC(=O)[C@H]([C@@H](C)O)NC(=O)[C@@H](Cc2ccccc2)NC(=O)[C@H](CCN)NC1=O)[C@@H](C)O` [Compound 71, (S)-6-methyloctanoyl-Dab-Thr-D-Ser-ring(4-10)[Dab-Dab-D-Phe-Thr-Dap-Dab-Thr]] (X1-[Dab]T[dS][Dab][Dab][dF]T[Dap][Dab]T; lactam 4-C), for which the MIC is 0.06 mg/L (≈ 0.0515 µM) in [1]; at most 0.03 mg/L in series [2]; at most 0.03 mg/L in series [3]; at most 0.03 mg/L in series [4]; 0.25 mg/L (≈ 0.215 µM) in [5]; 0.5 mg/L (≈ 0.429 µM) in series [6]. The MIC in series [7] is above 64 mg/L; in series [8], 64 mg/L (≈ 55 µM). Also, the IC50 at 72 h in series [9] was above 500 mg/L.

In the case of `CC(C)CCCCC(=O)N[C@@H](CCN)C(=O)N[C@H](C(=O)N[C@H](CO)C(=O)N[C@H]1CCNC(=O)[C@H]([C@@H](C)O)NC(=O)[C@H](CCN)NC(=O)[C@H](CN)NC(=O)[C@H]([C@@H](C)O)NC(=O)[C@@H](Cc2ccccc2)NC(=O)[C@H](CCN)NC1=O)[C@@H](C)O` [Compound 72, 6-methylheptanoyl-Dab-Thr-D-Ser-ring(4-10)[Dab-Dab-D-Phe-Thr-Dap-Dab-Thr]] ({Heptanoyl(6-Me)}-[Dab]T[dS][Dab][Dab][dF]T[Dap][Dab]T; lactam 4-C), the MIC was 0.06 mg/L (≈ 0.0522 µM) in series [1]; at most 0.03 mg/L in series [2]; at most 0.03 mg/L in series [3]; at most 0.03 mg/L in series [4]; 0.25 mg/L (≈ 0.217 µM) in series [5]; 0.5 mg/L (≈ 0.435 µM) in series [6]. Besides, the minimum inhibitory concentration (MIC) in [7] is above 64 mg/L; in [8], 64 mg/L (≈ 55.6 µM). The compound also came in with an IC50 at 72 h in series [9] above 500 mg/L.

With `CCCCCCCC(=O)N[C@@H](CCN)C(=O)N[C@H](C(=O)N[C@H](CO)C(=O)N[C@H]1CCNC(=O)[C@H]([C@@H](C)O)NC(=O)[C@H](CCN)NC(=O)[C@H](CN)NC(=O)[C@H]([C@@H](C)O)NC(=O)[C@@H](Cc2ccccc2)NC(=O)[C@H](CCN)NC1=O)[C@@H](C)O` [Compound 73, Octanoyl-Dab-Thr-D-Ser-ring(4-10)[Dab-Dab-D-Phe-Thr-Dap-Dab-Thr]] (Octanoyl-[Dab]T[dS][Dab][Dab][dF]T[Dap][Dab]T; lactam 4-C), the MIC is 0.06 mg/L (≈ 0.0522 µM) in [1]; at most 0.03 mg/L in series [2]; at most 0.03 mg/L in [3]; at most 0.03 mg/L in series [4]; 0.25 mg/L (≈ 0.217 µM) in [5]; 0.5 mg/L (≈ 0.435 µM) in series [6]. Also, the MIC in series [7] was above 64 mg/L; in [8], 64 mg/L (≈ 55.6 µM). Further, the IC50 at 72 h in [9] is above 500 mg/L.

Take `CCCCCCC(=O)N[C@@H](CCN)C(=O)N[C@H](C(=O)N[C@H](CO)C(=O)N[C@H]1CCNC(=O)[C@H]([C@@H](C)O)NC(=O)[C@H](CCN)NC(=O)[C@H](CN)NC(=O)[C@H]([C@@H](C)O)NC(=O)[C@@H](Cc2ccccc2)NC(=O)[C@H](CCN)NC1=O)[C@@H](C)O` [Compound 74, Heptanoyl-Dab-Thr-D-Ser-ring(4-10)[Dab-Dab-D-Phe-Thr-Dap-Dab-Thr]] (Heptanoyl-[Dab]T[dS][Dab][Dab][dF]T[Dap][Dab]T; lactam 4-C): the minimum inhibitory concentration (MIC) came to 0.06 mg/L (≈ 0.0528 µM) in series [1]; 0.03 mg/L (≈ 0.0264 µM) in series [2]; 0.06 mg/L (≈ 0.0528 µM) in series [3]; 0.06 mg/L (≈ 0.0528 µM) in [4]; 0.25 mg/L (≈ 0.22 µM) in series [5]; 0.5 mg/L (≈ 0.44 µM) in [6]. Also, the MIC in series [7] is above 64 mg/L; in [8], 64 mg/L (≈ 56.3 µM). This compound displayed a 50% inhibitory concentration (IC50) at 72 h in [9] above 500 mg/L.

Regarding `CCCCCCCCC(=O)N[C@@H](CCN)C(=O)N[C@H](C(=O)N[C@H](CO)C(=O)N[C@H]1CCNC(=O)[C@H]([C@@H](C)O)NC(=O)[C@H](CCN)NC(=O)[C@H](CN)NC(=O)[C@H]([C@@H](C)O)NC(=O)[C@@H](Cc2ccccc2)NC(=O)[C@H](CCN)NC1=O)[C@@H](C)O` [Compound 75, Nonanoyl-Dab-Thr-D-Ser-ring(4-10)[Dab-Dab-D-Phe-Thr-Dap-Dab-Thr]] (Nonanoyl-[Dab]T[dS][Dab][Dab][dF]T[Dap][Dab]T; lactam 4-C), the MIC amounted to 0.06 mg/L (≈ 0.0515 µM) in series [1]; 0.03 mg/L (≈ 0.0258 µM) in [2]; 0.06 mg/L (≈ 0.0515 µM) in series [3]; 0.06 mg/L (≈ 0.0515 µM) in series [4]; 0.25 mg/L (≈ 0.215 µM) in [5]; 0.5 mg/L (≈ 0.429 µM) in series [6]. Further, the results for the minimal inhibitory concentration (MIC) in series [7] and in series [8] were above 64 mg/L and 64 mg/L (≈ 55 µM), respectively. In series [9], this compound registered an IC50 at 72 h of 310 ± 19.8 mg/L (≈ 266 µM).

Regarding `CC[C@H](C)CCCCC(=O)N[C@@H](CCN)C(=O)N[C@H](C(=O)N[C@H](CO)C(=O)N[C@H]1CCNC(=O)[C@H]([C@@H](C)O)NC(=O)[C@H](CCN)NC(=O)[C@H](CCCN)NC(=O)[C@H]([C@@H](C)O)NC(=O)[C@@H](Cc2ccccc2)NC(=O)[C@H](CCN)NC1=O)[C@@H](C)O` [Compound 76, (S)-6-methyloctanoyl-Dab-Thr-D-Ser-ring(4-10)[Dab-Dab-D-Phe-Thr-Orn-Dab-Thr]] (X1-[Dab]T[dS][Dab][Dab][dF]T[Orn][Dab]T; lactam 4-C), the MIC is 0.06 mg/L (≈ 0.0503 µM) in [1]; at most 0.03 mg/L in series [2]; at most 0.03 mg/L in series [3]; at most 0.03 mg/L in [4]; 0.25 mg/L (≈ 0.21 µM) in series [5]; 0.5 mg/L (≈ 0.419 µM) in series [6]. Further, the minimal inhibitory concentration (MIC) in [7] is above 64 mg/L; in series [8] it was 64 mg/L (≈ 53.7 µM). In addition, the IC50 at 72 h in [9] is above 500 mg/L.

As to `CC(C)CCCCC(=O)N[C@@H](CCN)C(=O)N[C@H](C(=O)N[C@H](CO)C(=O)N[C@H]1CCNC(=O)[C@H]([C@@H](C)O)NC(=O)[C@H](CCN)NC(=O)[C@H](CCCN)NC(=O)[C@H]([C@@H](C)O)NC(=O)[C@@H](Cc2ccccc2)NC(=O)[C@H](CCN)NC1=O)[C@@H](C)O` [Compound 77, 6-methylheptanoyl-Dab-Thr-D-Ser-ring(4-10)[Dab-Dab-D-Phe-Thr-Orn-Dab-Thr]] ({Heptanoyl(6-Me)}-[Dab]T[dS][Dab][Dab][dF]T[Orn][Dab]T; lactam 4-C), the MIC was 0.06 mg/L (≈ 0.0509 µM) in series [1]; at most 0.03 mg/L in series [2]; at most 0.03 mg/L in series [3]; at most 0.03 mg/L in [4]; 0.25 mg/L (≈ 0.212 µM) in series [5]; 0.5 mg/L (≈ 0.424 µM) in [6]. The results for the MIC in series [7] and in series [8] were above 64 mg/L and 64 mg/L (≈ 54.3 µM), respectively. Further, the IC50 at 72 h in series [9] was above 500 mg/L.
